According to publication PMC6150365, “Simultaneous Determination of Seven Components in Rat Plasma by the UPLC-MS/MS Method and Application of Pharmacokinetic Studies to SimiaoYong’an Decoction” (Molecules : A Journal of Synthetic Chemistry and Natural …, 2017):

Assay: Pharmacokinetic study in rats after oral administration of SYD extract and its single and combined TCM extracts (UPLC-MS/MS of plasma)
Details: for MRT last: MRT(0–t); for MRT inf: MRT(0–∞); for half-life: t1/2, rat plasma
[1] = male, Sprague-Dawley, rat, plasma, po, 0.68 g/kg, rat plasma, oral GU extract 0.68 g/kg, n = 6
[2] = male, Sprague-Dawley, rat, plasma, po, 2.14 g·kg^−1 (extract), rat plasma, oral LJ + GU extract, n = 6
[3] = male, Sprague-Dawley, rat, plasma, po, 2.43 g/kg, rat plasma, oral AS + GU extract 2.43 g/kg, n = 6
[4] = male, Sprague-Dawley, rat, plasma, po, 3.38 g/kg extract (6.67 g/kg as herbs), rat plasma, oral SN + GU extract, n = 6
[5] = male, Sprague-Dawley, rat, plasma, po, 4.01 g·kg^−1 (extract), rat plasma, oral LJ + AS + GU extract, n = 6
[6] = male, Sprague-Dawley, rat, plasma, po, 4.73 g/kg, rat plasma, oral LJ + SN + GU extract 4.73 g/kg, n = 6
[7] = male, Sprague-Dawley, rat, plasma, po, 8.25 g/kg, rat plasma, oral SYD extract 8.25 g/kg, n = 6

Experimental: Pieces of LJ, SN, AS and GU were weighed according to the proportion of 3:3:2:1 with appropriate amounts. The mixed pieces were crushed and decocted two times (60 min each time) with water (1:10 w/v) after being soaked for 60 min. The decoctions were then combined and condensed to the concentration of 0.5 g/mL, after which 95% ethanol was slowly added to the concentrate until a final ethanol concentration of 70% was reached. The SYD solution was set at room temperature overnight and then was filtered. The solvent was recovered, and the residue was dried under reduced pressure. A certain amount of the water extract of SYD was weighed and then dissolved with purified water for intragastric (oral) administration solution. The single herbs and different combination groups such as LJ, SN, AS, GU, LJ + SN, LJ + AS, LJ + GU, SN + AS, SN + GU, AS + GU, LJ + SN + AS, LJ + SN + GU, LJ + AS + GU and SN + AS + GU were prepared according to the procedure of SYD.
Male Sprague-Dawley (SD) rats (body weight 250 ± 10 g) were supplied by the SPF (Beijing) Biotechnology Co., Ltd. (Certificate No.: SCXK 2016-0002, Beijing, China). The animals were maintained in controlled conditions (temperature 20–25 °C, relative humidity 55–60% and 12-h light/12-h dark cycle) with free access to standard laboratory food and water for seven days of acclimation and then fasted for 12 h before each experiment but allowed to drink freely during this time.
Ninety male SD rats were randomly separated into 15 groups and administered a dosage of extract via gastric gavage once per day; detailed information about the oral daily dose of SYD extract and the corresponding single and combined TCMs (LJ, SN, AS, GU, LJ + SN, LJ + AS, LJ + GU, SN + AS, SN + GU, AS + GU, LJ + SN + AS, LJ + SN + GU, LJ + AS + GU, SN + AS + GU and SYD) is listed in Table 4.
Each plasma sample (200 μL) with 50 μL IS solution added was spiked into 100 μL 1% formic acid distilled water solution and then vortexed for 1 min. Protein was precipitated by adding 600 μL of methanol to the mixture. After being vortexed and sonicated, the samples were centrifuged at 25,000 r/min, 4 °C for 10 min. The supernatant of each sample was transferred to a new 2-mL centrifuge tube and evaporated to dryness by N2 at 40 °C. Finally, the residue was dissolved in 100 μL methanol–water (1:1, v/v), followed by centrifugation at 30,000 r/min, 4 °C for 10 min, and 10-μL supernatant aliquots were injected into the UPLC-MS/MS system for analysis.
The SYD was decomposed into 15 groups of compatibility combinations (LJ, SN, AS, GU, LJ + SN, LJ + AS, LJ + GU, SN + AS, SN + GU, AS + GU, LJ + SN + AS, LJ + SN + GU, LJ + AS + GU, SN + AS + GU and SYD). The 15 combinations were weighed according to the proportion of 3:3:2:1 with appropriate amounts and prepared by the method described in “Section 3.2”. Six male SD rats (body weight 250 ± 10 g) of each compatibility group were used in the pharmacokinetic study. After 12-h fast, rats of the different groups were orally administered the respective extract dissolved in saline (Table 4). Venous blood (0.45 mL) was obtained from the orbit vein and collected in heparin-pretreated polypropylene centrifuge tubes at 0.083 h, 0.17 h, 0.25 h, 0.50 h, 0.75 h, 1.0 h, 1.5 h, 2.0 h, 3.0 h, 4.0 h, 6.0 h, 8.0, 12 h and 24 h post-dose. The plasma was separated by centrifugation at 8000 r/min for 10 min and then stored at −20 °C until analysis. The amount of each analyte in the plasma was estimated by UPLC-MS/MS analysis as described in Section 3.5.
Non-compartmental methods using Phoenix WinNonlin 7.0 software provided by the Beijing University of Chinese Medicine were used to analyze plasma concentration versus time profiles and to estimate the following pharmacokinetic parameters: terminal elimination half-lives (t1/2), area under the plasma concentration versus time curve from zero to last sampling time (AUC), and the mean residence time (MRT).

## O=C1C[C@@H](c2ccc(O[C@@H]3O[C@H](CO)[C@@H](O)[C@H](O)[C@H]3O)cc2)Oc2cc(O)ccc21 [Liquiritin, liquiritin]
[1]
  AUC(0-t): 190 ng·h/mL
  MRT last: 1.16 ± 0.01 h
  MRT inf: 1.19 ± 0.01 h
male, Sprague-Dawley, rat, plasma, po, 0.68 g/kg, AUC(0–∞), rat plasma, oral GU extract 0.68 g/kg, n = 6
  AUC(0-inf): 190 ng·h/mL
male, Sprague-Dawley, rat, plasma, po, 0.68 g/kg, Cmax, rat plasma, oral GU extract 0.68 g/kg, n = 6
  Cmax: 270 ng/mL
male, Sprague-Dawley, rat, plasma, po, 0.68 g/kg, Tmax, rat plasma, oral GU extract 0.68 g/kg, n = 6
  Tmax: 0.08 h
male, Sprague-Dawley, rat, plasma, po, 0.68 g/kg, oral GU extract 0.68 g/kg, n = 6
  half-life: 4.41 ± 0.59 h
male, Sprague-Dawley, rat, plasma, po, 2.14 g·kg^−1 (extract), AUC(0–∞), rat plasma, oral LJ + GU extract, n = 6
  AUC(0-inf): 200 ± 60 ng·h/mL
[2]
  MRT last: 2.53 ± 0.56 h
  MRT inf: 13.5 ± 11 h
male, Sprague-Dawley, rat, plasma, po, 2.14 g·kg^−1 (extract), Tmax, rat plasma, oral LJ + GU extract, n = 6
  Tmax: 0.56 ± 0.56 h
male, Sprague-Dawley, rat, plasma, po, 2.14 g·kg^−1 (extract), oral LJ + GU extract, n = 6
  half-life: 12.2 ± 7.3 h
male, Sprague-Dawley, rat, plasma, po, 2.14 g·kg^−1 extract, rat plasma, oral LJ + GU extract, n = 6
  AUC(0-t): 180 ± 60 ng·h/mL
[3]
  AUC(0-t): 220 ± 80 ng·h/mL
  MRT last: 2.3 ± 0.63 h
  MRT inf: 11.1 ± 8.58 h
male, Sprague-Dawley, rat, plasma, po, 2.43 g/kg, AUC(0–∞), rat plasma, oral AS + GU extract 2.43 g/kg, n = 6
  AUC(0-inf): 240 ± 80 ng·h/mL
male, Sprague-Dawley, rat, plasma, po, 2.43 g/kg, Tmax, rat plasma, oral AS + GU extract 2.43 g/kg, n = 6
  Tmax: 0.6 ± 0.5 h
male, Sprague-Dawley, rat, plasma, po, 2.43 g/kg, oral AS + GU extract 2.43 g/kg, n = 6
  half-life: 9.28 ± 5.92 h
[4]
  MRT last: 2.48 ± 0.46 h
  MRT inf: 12.4 ± 9.87 h
male, Sprague-Dawley, rat, plasma, po, 3.38 g/kg extract (6.67 g/kg as herbs), Tmax, rat plasma, oral SN + GU extract, n = 6
  Tmax: 0.42 ± 0.53 h
male, Sprague-Dawley, rat, plasma, po, 3.38 g/kg extract (6.67 g/kg as herbs), oral SN + GU extract, n = 6
  half-life: 7.81 ± 5.31 h
male, Sprague-Dawley, rat, plasma, po, 3.38 g·kg^−1 (extract), rat plasma, oral SN + GU extract, n = 6
  AUC(0-t): 180 ± 50 ng·h/mL
male, Sprague-Dawley, rat, plasma, po, 3.38 g·kg^−1 (extract), AUC(0–∞), rat plasma, oral SN + GU extract, n = 6
  AUC(0-inf): 210 ± 50 ng·h/mL
male, Sprague-Dawley, rat, plasma, po, 3.38 g·kg^−1 extract, Cmax, rat plasma, oral SN + GU extract, n = 6
  Cmax: 150 ± 70 ng/mL
[5]
  AUC(0-t): 220 ± 130 ng·h/mL
  MRT last: 2.41 ± 0.63 h
  MRT inf: 16 ± 11.8 h
male, Sprague-Dawley, rat, plasma, po, 4.01 g·kg^−1 (extract), AUC(0–∞), rat plasma, oral LJ + AS + GU extract, n = 6
  AUC(0-inf): 260 ± 140 ng·h/mL
male, Sprague-Dawley, rat, plasma, po, 4.01 g·kg^−1 (extract), Cmax, rat plasma, oral LJ + AS + GU extract, n = 6
  Cmax: 210 ± 170 ng/mL
male, Sprague-Dawley, rat, plasma, po, 4.01 g·kg^−1 (extract), Tmax, rat plasma, oral LJ + AS + GU extract, n = 6
  Tmax: 0.79 ± 0.29 h
male, Sprague-Dawley, rat, plasma, po, 4.01 g·kg^−1 (extract), oral LJ + AS + GU extract, n = 6
  half-life: 13.7 ± 4.69 h
[6]
  AUC(0-t): 230 ± 160 ng·h/mL
  MRT last: 2.5 ± 0.67 h
  MRT inf: 16.3 ± 12.9 h
male, Sprague-Dawley, rat, plasma, po, 4.73 g/kg, AUC(0–∞), rat plasma, oral LJ + SN + GU extract 4.73 g/kg, n = 6
  AUC(0-inf): 260 ± 170 ng·h/mL
male, Sprague-Dawley, rat, plasma, po, 4.73 g/kg, Tmax, rat plasma, oral LJ + SN + GU extract 4.73 g/kg, n = 6
  Tmax: 0.88 ± 0.31 h
male, Sprague-Dawley, rat, plasma, po, 4.73 g/kg, oral LJ + SN + GU extract 4.73 g/kg, n = 6
  half-life: 13.4 ± 5.15 h
male, Sprague-Dawley, rat, plasma, po, 8.25 g/kg
  AUC(0-inf): 340 ± 210 ng·h/mL
[7]
  AUC(0-t): 290 ± 210 ng·h/mL
  MRT last: 2.89 ± 0.92 h
  MRT inf: 11.3 ± 7.16 h
male, Sprague-Dawley, rat, plasma, po, 8.25 g/kg, Cmax, rat plasma, oral SYD extract 8.25 g/kg, n = 6
  Cmax: 210 ± 170 ng/mL
male, Sprague-Dawley, rat, plasma, po, 8.25 g/kg, Tmax, rat plasma, oral SYD extract 8.25 g/kg, n = 6
  Tmax: 0.88 ± 0.31 h
male, Sprague-Dawley, rat, plasma, po, 8.25 g/kg, oral SYD extract 8.25 g/kg, n = 6
  half-life: 13.4 ± 5.59 h
male, Sprague-Dawley, rat, plasma, po, […], oral SN + AS + GU extract […], n = 6
  half-life: 11.6 ± 5.01 h
Rat plasma, oral AS + GU extract 2.43 g/kg, n = 6
  Cmax: 200 ± 130 ng/mL
Rat plasma, oral LJ + GU extract, n = 6
  Cmax: 140 ± 70 ng/mL
Rat plasma, oral SN + AS + GU extract […], n = 6
  Tmax: 1.00 ± 0.27 h
